From ChEMBL document CHEMBL1201862, “PubChem BioAssay data set” (2004)
The source made the active and inactive calls.

Tests used:
[1] = target: T1, Long-chain-fatty-acid--AMP ligase FadD28 (Mycobacterium tuberculosis, UniProt P9WQ59); assay: Fluorescence polarization aasay to screen for inhibitors that compete for the binding of FadD28 to a bisubstrate Measured in Biochemical System Using Plate Reader - 2147-01_Inhibitor_Dose_CherryPick_Activity.; assay type: functional, Mycobacterium tuberculosis H37Rv
T1 sequence (P9WQ59 whole entry): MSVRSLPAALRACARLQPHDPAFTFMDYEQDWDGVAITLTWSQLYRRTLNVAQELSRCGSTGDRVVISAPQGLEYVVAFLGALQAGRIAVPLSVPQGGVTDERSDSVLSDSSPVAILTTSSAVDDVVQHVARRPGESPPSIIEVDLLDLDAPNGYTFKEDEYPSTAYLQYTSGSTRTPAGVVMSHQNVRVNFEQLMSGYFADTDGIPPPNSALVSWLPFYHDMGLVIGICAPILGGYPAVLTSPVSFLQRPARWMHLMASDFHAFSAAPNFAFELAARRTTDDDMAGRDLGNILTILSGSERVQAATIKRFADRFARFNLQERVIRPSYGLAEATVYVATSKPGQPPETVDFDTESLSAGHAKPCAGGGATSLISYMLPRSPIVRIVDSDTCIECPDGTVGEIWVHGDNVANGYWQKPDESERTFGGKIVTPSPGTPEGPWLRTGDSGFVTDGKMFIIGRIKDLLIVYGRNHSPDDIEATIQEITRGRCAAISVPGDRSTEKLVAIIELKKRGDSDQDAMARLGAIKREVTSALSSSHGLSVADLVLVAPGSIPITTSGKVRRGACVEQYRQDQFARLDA

[2] = target: T2, Adenosylmethionine-8-amino-7-oxononanoate aminotransferase (Mycobacterium tuberculosis, UniProt P9WQ81); assay: Mycobacterium tuberculosis BioA enzyme inhibitor Measured in Biochemical System Using Plate Reader - 2163-02_Inhibitor_Dose_CherryPick_Activity.; assay type: functional, Mycobacterium tuberculosis UT205
T2 sequence (P9WQ81 whole entry): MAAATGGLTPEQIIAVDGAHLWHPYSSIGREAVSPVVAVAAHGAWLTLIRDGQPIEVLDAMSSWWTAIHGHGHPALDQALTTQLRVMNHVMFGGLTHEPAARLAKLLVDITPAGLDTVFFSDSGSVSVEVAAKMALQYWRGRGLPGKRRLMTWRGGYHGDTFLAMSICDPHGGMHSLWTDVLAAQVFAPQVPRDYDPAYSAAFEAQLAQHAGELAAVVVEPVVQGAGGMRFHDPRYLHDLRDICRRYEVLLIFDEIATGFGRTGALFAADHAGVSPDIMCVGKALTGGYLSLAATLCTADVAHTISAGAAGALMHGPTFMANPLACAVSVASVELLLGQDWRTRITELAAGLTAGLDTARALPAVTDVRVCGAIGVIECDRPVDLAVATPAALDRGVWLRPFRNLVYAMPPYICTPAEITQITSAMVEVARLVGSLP

[3] = DRD fibroblast viability loss – cell-based, non-viral oncogenic, luminescence, dose response (AID 1934); assay type: functional; details: Homo sapiens
[4] = viability loss in THP-1 monocytes – THP-1 cells, cytotoxicity control for Vif-APOBEC3G degradation inhibitor project, dose response (AID 1117359); assay type: functional; details: THP-1
BJ [5] = assay: BJ-TERT fibroblast viability loss – cell-based, RAS-independent, luminescence, dose response (AID 1933); assay type: functional; details: Homo sapiens
BJ [6] = assay: growth inhibition of engineered Ras-driven BJ cells – cell-based, alamar blue fluorescence, cherrypicked samples, dose response (AID 2631); assay type: functional; details: Homo sapiens;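 note: confirmatory dose-response assay in RAS-dependent BJ fibroblasts engineered with TERT, LT and ST, with cytotoxicity read by fluorescence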
BJ [7] = assay: cells; assay type: functional, cell-based; details: Homo sapiens
BJ [8] = assay: BJ-TERT-LT-ST fibroblast viability loss – cell-based, RAS-independent, luminescence, dose response (AID 1935); assay type: functional; details: Homo sapiens;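 note: BJ fibroblasts immortalized with TERT plus LT and ST oncogenes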
[9] = target: T3, Corticotropin-releasing factor receptor 2/Corticotropin-releasing factor-binding protein (Homo sapiens, UniProt P24387+Q13324); assay: Dose Response confirmation of uHTS hits for small molecule antagonists of the CRF-binding protein and CRF-R2 receptor complex.; assay type: functional; details: read-out: IC50_Mean
T3 sequence (Q13324 whole entry): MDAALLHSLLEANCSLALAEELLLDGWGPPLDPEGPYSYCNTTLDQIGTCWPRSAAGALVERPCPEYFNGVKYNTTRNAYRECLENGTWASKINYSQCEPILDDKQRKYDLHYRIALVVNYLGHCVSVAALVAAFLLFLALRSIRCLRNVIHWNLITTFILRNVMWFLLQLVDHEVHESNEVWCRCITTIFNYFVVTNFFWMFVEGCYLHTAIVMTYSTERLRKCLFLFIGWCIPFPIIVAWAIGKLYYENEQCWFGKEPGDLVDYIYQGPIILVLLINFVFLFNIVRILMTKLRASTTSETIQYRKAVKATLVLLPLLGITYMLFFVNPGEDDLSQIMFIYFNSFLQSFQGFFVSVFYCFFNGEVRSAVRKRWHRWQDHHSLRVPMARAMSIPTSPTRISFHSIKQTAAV
T3 sequence (P24387 whole entry): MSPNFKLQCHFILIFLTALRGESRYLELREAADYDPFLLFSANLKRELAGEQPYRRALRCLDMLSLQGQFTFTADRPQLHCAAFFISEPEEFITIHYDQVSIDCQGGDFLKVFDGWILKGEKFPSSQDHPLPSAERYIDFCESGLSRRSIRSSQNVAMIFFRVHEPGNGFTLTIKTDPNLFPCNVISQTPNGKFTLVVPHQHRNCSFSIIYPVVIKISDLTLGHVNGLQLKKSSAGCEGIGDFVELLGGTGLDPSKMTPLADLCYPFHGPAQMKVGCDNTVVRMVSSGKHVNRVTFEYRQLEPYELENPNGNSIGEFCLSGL

[10] = blockers of CRF-binding protein–CRF-R2 complex – cell-based, uHTS hits, 384-well, dose response (AID 651639); assay type: functional, Homo sapiens; details: read-out: IC50_Mean
[11] = target: T3, Corticotropin-releasing factor receptor 2/Corticotropin-releasing factor-binding protein; assay: activators of CRF receptor 2 with binding protein – uHTS hits, confirmation (AID 602473); assay type: functional; details: read-out: EC50_Mean
[12] = target: FAD-linked sulfhydryl oxidase ALR (Homo sapiens, UniProt P55789); assay: ALR-catalysed DTT oxidation blockers – biochemical, H2O2 detection, luminescence, cherry-pick, dose response (AID 493248)
FAD-linked sulfhydryl oxidase ALR, sequence (P55789 whole entry): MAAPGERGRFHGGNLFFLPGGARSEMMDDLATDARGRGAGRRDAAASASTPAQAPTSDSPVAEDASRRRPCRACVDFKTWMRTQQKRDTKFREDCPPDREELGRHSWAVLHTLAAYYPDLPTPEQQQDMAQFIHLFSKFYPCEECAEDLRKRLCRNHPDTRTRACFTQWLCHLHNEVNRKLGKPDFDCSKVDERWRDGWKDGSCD

Cytochrome P450 2D6 = Cytochrome P450 2D6 (Homo sapiens, UniProt P10635);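 note: CYP2D6 member of a cytochrome P450 panel assay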
Cytochrome P450 2D6, sequence (P10635 whole entry): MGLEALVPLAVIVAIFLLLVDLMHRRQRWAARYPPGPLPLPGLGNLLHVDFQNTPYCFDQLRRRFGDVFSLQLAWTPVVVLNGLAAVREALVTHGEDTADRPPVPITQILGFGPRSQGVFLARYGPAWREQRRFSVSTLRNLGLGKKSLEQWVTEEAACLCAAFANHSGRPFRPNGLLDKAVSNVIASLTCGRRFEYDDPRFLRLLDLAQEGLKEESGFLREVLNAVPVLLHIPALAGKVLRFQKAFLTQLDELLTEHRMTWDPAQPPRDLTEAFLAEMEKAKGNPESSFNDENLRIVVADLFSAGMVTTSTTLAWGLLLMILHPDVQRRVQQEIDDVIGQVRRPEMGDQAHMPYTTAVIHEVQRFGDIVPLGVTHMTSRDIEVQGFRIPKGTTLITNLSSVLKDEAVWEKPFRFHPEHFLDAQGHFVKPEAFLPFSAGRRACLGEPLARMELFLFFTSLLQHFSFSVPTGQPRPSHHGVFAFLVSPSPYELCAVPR

Cytochrome P450 2C9 = Cytochrome P450 2C9 (Homo sapiens, UniProt P11712)
Cytochrome P450 2C9, sequence (P11712 whole entry): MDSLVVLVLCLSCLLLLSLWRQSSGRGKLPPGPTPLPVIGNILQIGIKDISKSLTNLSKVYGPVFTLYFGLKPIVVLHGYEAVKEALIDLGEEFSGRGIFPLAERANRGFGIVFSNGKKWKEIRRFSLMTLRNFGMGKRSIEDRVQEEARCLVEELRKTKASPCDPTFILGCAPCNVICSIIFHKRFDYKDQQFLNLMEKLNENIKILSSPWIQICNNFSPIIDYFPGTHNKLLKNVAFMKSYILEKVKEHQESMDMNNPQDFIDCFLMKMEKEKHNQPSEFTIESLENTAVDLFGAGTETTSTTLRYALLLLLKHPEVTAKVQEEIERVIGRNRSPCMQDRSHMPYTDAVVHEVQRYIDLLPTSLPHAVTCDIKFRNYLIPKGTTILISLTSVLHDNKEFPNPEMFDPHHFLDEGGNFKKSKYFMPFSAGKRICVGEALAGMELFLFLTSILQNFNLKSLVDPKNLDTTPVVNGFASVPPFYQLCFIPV

[13] = Luminescence Cell-Based Dose Retest to Confirm Inhibitors of Cancer Stem Cells. [Related pubchem assays (depositor defined):AID2717, AID2721]; assay type: functional; details: Homo sapiens
[14] = target: T4, Replicative DNA helicase DnaB (Mycobacterium tuberculosis, UniProt P9WMR3); assay: DnaB intein splicing inhibitors, dose response, biochemical, cell-free fluorescence (AID 449749); assay type: functional
T4 sequence (P9WMR3 whole entry): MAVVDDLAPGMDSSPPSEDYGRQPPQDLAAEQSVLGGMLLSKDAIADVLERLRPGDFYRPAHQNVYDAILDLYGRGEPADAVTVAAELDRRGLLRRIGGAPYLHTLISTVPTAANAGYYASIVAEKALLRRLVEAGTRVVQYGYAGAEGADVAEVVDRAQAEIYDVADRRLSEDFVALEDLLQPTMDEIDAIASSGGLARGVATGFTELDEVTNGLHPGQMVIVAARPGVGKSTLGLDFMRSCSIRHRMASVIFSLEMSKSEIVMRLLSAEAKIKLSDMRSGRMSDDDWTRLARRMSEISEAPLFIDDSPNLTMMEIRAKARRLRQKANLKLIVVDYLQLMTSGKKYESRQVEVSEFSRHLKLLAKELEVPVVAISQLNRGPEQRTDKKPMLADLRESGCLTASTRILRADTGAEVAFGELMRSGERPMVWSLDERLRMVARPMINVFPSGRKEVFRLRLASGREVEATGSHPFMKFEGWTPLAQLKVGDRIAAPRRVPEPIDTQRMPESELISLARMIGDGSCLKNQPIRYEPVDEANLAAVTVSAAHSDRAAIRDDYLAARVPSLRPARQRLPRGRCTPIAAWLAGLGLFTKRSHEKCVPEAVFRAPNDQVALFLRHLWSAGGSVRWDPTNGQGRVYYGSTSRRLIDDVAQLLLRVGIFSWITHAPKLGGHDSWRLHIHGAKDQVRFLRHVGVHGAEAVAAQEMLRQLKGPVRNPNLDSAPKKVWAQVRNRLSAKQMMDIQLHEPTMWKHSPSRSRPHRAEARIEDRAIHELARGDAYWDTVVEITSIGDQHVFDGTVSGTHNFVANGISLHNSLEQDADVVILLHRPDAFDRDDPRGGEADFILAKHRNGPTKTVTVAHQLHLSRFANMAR

Protein RecA = target: T5, Protein RecA (Mycobacterium tuberculosis, UniProt P9WHJ3); assay: Fluorescence Cell-Free Homogeneous Dose Retest to Identify Inhibitors of RecA-Intein Splicing Activity. [Related pubchem assays (depositor defined):AID2097, AID2223, AID489010, AID492950]; assay type: functional
T5 sequence (P9WHJ3 whole entry): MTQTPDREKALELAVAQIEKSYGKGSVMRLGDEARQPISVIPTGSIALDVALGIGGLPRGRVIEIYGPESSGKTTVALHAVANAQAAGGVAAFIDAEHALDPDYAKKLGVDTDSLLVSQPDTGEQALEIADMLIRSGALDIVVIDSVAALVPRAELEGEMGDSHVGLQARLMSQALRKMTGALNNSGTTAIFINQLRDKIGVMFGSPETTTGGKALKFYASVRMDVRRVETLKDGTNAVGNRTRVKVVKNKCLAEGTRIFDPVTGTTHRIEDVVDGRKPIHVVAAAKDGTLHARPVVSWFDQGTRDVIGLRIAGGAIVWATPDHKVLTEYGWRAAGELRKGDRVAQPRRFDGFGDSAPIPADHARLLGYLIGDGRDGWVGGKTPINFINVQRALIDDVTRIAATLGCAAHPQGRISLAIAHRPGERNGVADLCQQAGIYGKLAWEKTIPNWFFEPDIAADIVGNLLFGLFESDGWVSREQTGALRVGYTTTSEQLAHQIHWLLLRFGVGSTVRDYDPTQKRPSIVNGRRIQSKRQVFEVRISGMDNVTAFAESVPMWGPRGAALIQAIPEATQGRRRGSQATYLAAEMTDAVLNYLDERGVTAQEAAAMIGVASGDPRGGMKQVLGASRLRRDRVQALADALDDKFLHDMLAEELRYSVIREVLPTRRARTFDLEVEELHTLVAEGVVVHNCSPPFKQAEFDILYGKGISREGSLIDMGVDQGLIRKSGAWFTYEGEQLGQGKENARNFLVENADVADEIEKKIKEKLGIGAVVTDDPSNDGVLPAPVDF

[15] = microbe, parasite or virus in culture; assay type: functional; details: Mycobacterium tuberculosis
[16] = viability of HCT116 lacking mutant beta-catenin – cell-based, human colon tumor, dose response (AID 1045); assay type: functional;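 note: HCT116 colon tumor cells with beta catenin knocked out; cells exposed to compound for 60 hours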
[17] = viability of PTEN-deleted HCT116 cells – cell-based, HCT116 PTEN knockout, dose response (AID 1047); assay type: functional;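 note: HCT116 colon tumor cells with PTEN knocked out; cells exposed to compound for 60 hours before readout; potency for loss of cell viability measured by luminescence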
[18] = target: Induced myeloid leukemia cell differentiation protein Mcl-1 (Homo sapiens, UniProt Q07820); assay type: functional
Induced myeloid leukemia cell differentiation protein Mcl-1, sequence (Q07820 whole entry): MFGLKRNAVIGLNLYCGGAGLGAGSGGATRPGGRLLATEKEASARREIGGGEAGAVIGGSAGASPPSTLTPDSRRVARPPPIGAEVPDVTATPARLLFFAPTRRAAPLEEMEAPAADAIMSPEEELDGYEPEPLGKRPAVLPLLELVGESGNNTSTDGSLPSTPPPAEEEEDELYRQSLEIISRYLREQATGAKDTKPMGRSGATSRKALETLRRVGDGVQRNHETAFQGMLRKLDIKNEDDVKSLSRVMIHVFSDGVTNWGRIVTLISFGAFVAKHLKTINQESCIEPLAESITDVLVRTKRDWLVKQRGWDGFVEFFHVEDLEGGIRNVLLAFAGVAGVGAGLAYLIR

CCc1nnc(NS(=O)(=O)c2ccc(NC(=O)Nc3ccc(OC)cc3)cc2)s1
AC50 [1]: 73.5 µM (active)

Cc1cc(C(=O)CSc2nncs2)c(C)n1-c1ccc2c(c1)OCO2
AC50 [2]: 1.67 µM (active)

COc1cc(C(=O)Nc2cccnc2)cc(OC)c1OC
AC50 [2]: 2.14 µM (active)

CC(=O)N1CC[C@@H]2[C@@H](CO)N(C)c3ccc(-c4cccc(F)c4)cc3[C@@H]21
AC50 [2]: 0.832 µM (active)

COc1ccc(C)cc1Nc1c2c(nc3ccccc13)CCC2
EC50 [3]: 7.71 µM (inconclusive) | CC50 [4]: 0.62 µM (active) | EC50 (BJ [5]): 3.98 µM (inconclusive) | EC50 (BJ [6]): 0.174 µM (active) | EC50 (BJ [7]): 15.1 µM (inconclusive) | EC50 (BJ [8]): 1 µM (inconclusive)

COC(=O)c1cc(OC)c(OC)cc1NC(=O)c1c(-c2ccccc2)noc1C
IC50 [9]: 16.2 µM (active) | IC50 [10]: 1.87 µM (active) | EC50 [11]: > 53 µM (inactive)

O=C(COC(=O)c1ccc(O)cc1O)Nc1cccc2ccccc12
AC50 [1]: > 100 µM (inactive)

COc1ccc(NC2c3ccccc3C(=O)N2c2cccnc2)cc1Cl (stereo not given)
AC50 [2]: 4.04 µM (active) | AC50 [12]: 4.34 µM (active)

N#Cc1cccc(C(c2nnnn2C2CCCC2)N2CCCCCC2)c1 (stereo not given)
IC50 [9]: 20.7 µM (active) | AC50 (Cytochrome P450 2D6): 11.2 µM (inconclusive) | IC50 [10]: > 20 µM (inactive) | EC50 [11]: > 53 µM (inactive) | AC50 (Cytochrome P450 2C9): 35.5 µM (inconclusive)

Cc1nc(Sc2ccccc2)c(C#N)cc1-c1ccccc1
IC50 [9]: < 0.368 µM (active) | IC50 [10]: > 20 µM (inactive) | EC50 [11]: > 53 µM (inactive)

CC1=NN(c2nc(-c3ccc(F)cc3)cs2)C(=O)C1
AC50 [1]: 32 µM (inactive) | AC50 [13]: 7.23 µM (active)

Cc1ccc(C2CC(c3cccs3)=NN2C(=O)CCl)cc1 (stereo not given)
EC50 [3]: 5.15 µM (inconclusive) | AC50 [14]: 1.23 µM (active) | EC50 (BJ [5]): 0.911 µM (active) | EC50 (Protein RecA): 0.943 µM (active) | CC50 [15]: 2.24 µM (active) | EC50 (BJ [6]): 2.87 µM (active) | EC50 (BJ [7]): 5.54 µM (active) | EC50 (BJ [8]): 6 µM (active)

CCC(c1nnnn1C1CCCC1)N1CCN(Cc2ccccc2)CC1 (stereo not given)
IC50 [9]: < 0.368 µM (active) | IC50 [10]: > 20 µM (inactive) | EC50 [11]: > 53 µM (inactive)

CCOc1ccccc1Nc1nc(-c2sc(NC(=O)c3ccc([N+](=O)[O-])cc3)nc2C)cs1
EC50 [3]: 7.92 µM (active) | EC50 [16]: 7.38 µM (active) | EC50 [17]: 9.09 µM (active) | IC50 [18]: 13.4 µM (active) | EC50 (BJ [5]): 7.64 µM (active) | EC50 (BJ [6]): > 133 µM (inactive) | EC50 (BJ [7]): 12.7 µM (active) | EC50 (BJ [8]): > 150 µM (inconclusive)
